In patent US20210361741A1, “NANOPARTICLE FORMULATIONS AND METHODS OF USE FOR ALPHA CONNEXIN C-TERMINAL PEPTIDES” (FIRSTSTRING RESEARCH, INC., priority 2018, published 2021) one finds tumor volume data, which are given here for 1 compound.

The assay concerns U87MG GBM cells. Nature of the assay: Xenograft GBM mouse model. Type of assay: in vivo. Particulars: TMZ alone, 7.5 mg/kg i.p. every other day. The method, then:
Effect of αCT1-NP in a xenograft GBM mouse model. To assess the in vivo safety and efficacy of αCT1-NPs, a mouse xenograft model of GBM was employed U87MG GBM cells were cultured and 1×10^6 cells were mixed with 100 μL of Matrigel® Matrix and subcutaneously injected into the flanks of SCID/beige anesthetized mice using 23 gauge needles. After 8 days, mice were divided into 2 groups: (i) TMZ alone, and (ii) TMZ+αCT1 particles. The treatment regimen was as follows: TMZ (7.5 mg/kg) was administered by intraperitoneal injection with an insulin syringe every other day starting on day 8 for both groups 1 and 2 mice. αCT1 particles were reconstituted in 1×PBS from −80° C. storage and 100 uL aliquots were prepared and stored at −20° C. The concentration of αCT1 delivered in 1 dose of particles (100 uL) was approximately 8 μM at 1.2 mg particles/kg of mouse body weight. αCT1 particles were delivered at the tumor growth site every other day starting on day 10 for group 2 mice using insulin syringes. Group 2 mice received a total of 6 injections of particles during the course of treatment. This treatment regimen continued for 13 days. Tumor sizes were measured every other day using a caliper. Tumor volume was calculated ((length×width2)/2).

As to `Cn1nnc2c(C(N)=O)ncn2c1=O` [TMZ, temozolomide], the tumor volume entry is reported as “no effect”.
